What all share (format): cell-based
The test system of assay [1] is HEK293 cells overexpressing APOL1 G2. In words: APOL1 G2 HEK293 cell rescue assay (reversal of cell death caused by overexpression of APOL1). The following applies: Homo sapiens, HEK293, HEK293 overexpressing APOL1 G2; geometric mean of at least 2 assay runs; † = single assay run. Put shortly:
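Each compound tested in duplicate wells on one plate per run, with values usually the geometric mean across at least two runs on different days, occasionally from one run only. Read-out: concentration giving half-maximal rescue of APOL1 G2 overexpression-induced death of HEK293 cells.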

Assay [2] deals with Trypanosoma brucei Lister 427 VSG221 with APOL1 G1 recombinant protein. The experiment in a line: APOL1 G1 trypanosome cell rescue assay (Example B5). The following applies: Trypanosoma brucei, 20 h, read-out: APOL1 G1 Trypanosome Rescue EC50, Trypanosoma brucei Lister 427 VSG221 with APOL1 G1 recombinant protein, 20 hours, CellTiter-Glo; geometric mean of at least 2 assay runs; † = single assay run. The gist of the method: (§1)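 Viability read by CellTiter-Glo luminescence after 20 h co-incubation (37° C, 5% CO2) of 250 trypanosomes/well in modified HMI-9 with test compound (duplicate 11-point, 2-fold dilutions, 0.4% DMSO) and APOL1 protein, […]. Protein: mature residues 28-398, E. coli inclusion-body refolded, tag cleaved, in DDM.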
On the technique in general: Cellular ATP, detected with luciferase, serves as a proxy for viable cell number.

For assay [3], the system named is Trypanosoma brucei Lister 427 VSG221 with APOL1 G2 recombinant protein. In words: APOL1 G2 trypanosome cell rescue assay (Example B5). As to conditions: Trypanosoma brucei, 20 h, read-out: APOL1 G2 Trypanosome Rescue EC50, Trypanosoma brucei Lister 427 VSG221 with APOL1 G2 recombinant protein, 20 hours, CellTiter-Glo; geometric mean of at least 2 assay runs; † = single assay run. Put shortly:
as §1

`O=C(c1c(F)cc(OCCN2CCC3(CC2)C(=O)Nc2ccc(Cl)cc23)cc1F)N1CCS(=O)(=O)CC1` [Compound 259, 4-[4-(2-{5-chloro-2-oxo-1,2-dihydrospiro[indole-3,4′-piperidin]-1′-yl}ethoxy)-2,6-difluorobenzoyl]-1λ^6-thiomorpholine-1,1-dione]: the EC50 (usually the concentration at which the effect is half-maximal) is 37.5 nM in assay [1], 92.2 nM in assay [2] and 25.5 nM in assay [3].

For `CN1C(=O)C2(CCN(CCOc3cc(F)c(C(=O)N4CCS(=O)(=O)CC4)c(F)c3)CC2)c2cc(C#N)ccc21` [Compound 260, 1′-{2-[4-(1,1-dioxo-1λ^6-thiomorpholine-4-carbonyl)-3,5-difluorophenoxy]ethyl}-1-methyl-2-oxo-1,2-dihydrospiro[indole-3,4′-piperidine]-5-carbonitrile], the values for the EC50 in assay [1], in assay [2] and in assay [3] were 119 nM, 397 nM and 110 nM, respectively.

On to `CN1C(=O)C2(CCN(CCOc3ccc(C(=O)N4CCS(=O)(=O)CC4)c(C(F)(F)F)c3)CC2)c2cc(C#N)ccc21` [Compound 261, 1′-{2-[4-(1,1-dioxo-1λ^6-thiomorpholine-4-carbonyl)-3-(trifluoromethyl)phenoxy]ethyl}-1-methyl-2-oxo-1,2-dihydrospiro[indole-3,4′-piperidine]-5-carbonitrile], for which the values for the EC50 in assay [1], in assay [2] and in assay [3] were 89 nM, 100 nM and 29.6 nM, respectively.

As for `CS(=O)(=O)c1ccc(OCCN2CCC3(CC2)C(=O)N(CCO)c2ccc(Cl)cc23)cc1C(F)F` [Compound 265, 5-chloro-1′-{2-[3-(difluoromethyl)-4-methanesulfonylphenoxy]ethyl}-1-(2-hydroxyethyl)-1,2-dihydrospiro[indole-3,4′-piperidin]-2-one], the results for the EC50 in assay [1], in assay [2] and in assay [3] were 30 nM, 105 nM and 23.1 nM, respectively.

Turning to `CS(=O)(=O)c1ccc(OCCN2CCC3(CC2)C(=O)N(CCO)c2ccc(C#N)cc23)cc1C(F)F` [Compound 266, 1′-{2-[3-(difluoromethyl)-4-methanesulfonylphenoxy]ethyl}-1-(2-hydroxyethyl)-2-oxo-1,2-dihydrospiro[indole-3,4′-piperidine]-5-carbonitrile], the EC50 came out at 104 nM in assay [1], 407 nM in assay [2] and 77.1 nM in assay [3].

Regarding `O=C(c1ccc(OCCN2CCC3(CC2)C(=O)Nc2ccc(Cl)cc23)cc1C(F)(F)F)N1CCS(=O)(=O)CC1` [Compound 272, 4-[4-(2-{5-chloro-2-oxo-1,2-dihydrospiro[indole-3,4′-piperidin]-1′-yl}ethoxy)-2-(trifluoromethyl)benzoyl]-1λ^6-thiomorpholine-1,1-dione], the EC50 in assay [1] stood at 93.4 nM; in assay [2] it was 73.2 nM; in assay [3], 18.9 nM.

`CS(=O)(=O)N1CC2(CN(C(=O)c3ccc(OCCN4CCC5(CC4)C(=O)Nc4ccc(Cl)cc45)cc3F)C2)C1` [Compound 273, 5-chloro-1′-[2-(3-fluoro-4-{6-methanesulfonyl-2,6-diazaspiro[3.3]heptane-2-carbonyl}phenoxy)ethyl]-1,2-dihydrospiro[indole-3,4′-piperidin]-2-one]: the EC50 in assay [1] is 88.5 nM; in assay [2], 71.6 nM; in assay [3] it was 25.8 nM.

Regarding `C[C@]1(O)C[C@@H](N2C(=O)CCc3cc(OCCN4CCC5(CC4)C(=O)Nc4ccc(C(F)F)cc45)cnc32)C1` [Compound 274, 5-(difluoromethyl)-1′-[2-({7-oxo-8-[(cis)-3-hydroxy-3-methylcyclobutyl]-5,6,7,8-tetrahydro-1,8-naphthyridin-3-yl}oxy)ethyl]-1,2-dihydrospiro[indole-3,4′-piperidin]-2-one], the EC50 is 34 nM in assay [1], 58.4 nM in assay [2] and 17.2 nM in assay [3].

The values are drawn from patent US12344610B2, “APOL1 inhibitors and methods of use” (Maze Therapeutics, Inc., priority 2022, dated 2025).
